{"source": "patent US20200069691A1", "about": "“HETEROCYCLIC COMPOUNDS AS HIV PROTEASE INHIBITORS” (Merck Sharp & Dohme Corp., priority 2016, published 2020)", "target": "T1, wild-type HIV-1 protease (Human immunodeficiency virus type 1 group M subtype B, UniProt P04585)", "T1 construct": "Escherichia coli expressed wild-type HIV-1 protease protein", "assay": "Assay for Inhibition of Microbial Expressed HIV Protease (peptide substrate cleavage, LC-MS/MS readout)", "type": "biochemical", "conditions": "E. coli expressed wild-type HIV-1 protease, mean of at least two independent experiments, read-out: HIV Pr Enzyme HIV1 PR IC50", "outline": "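E. coli-expressed wild-type HIV-1 protease ([…]) was preincubated with inhibitor 30 min at room temperature in pH 5.5 acetate buffer (100 mM NaCl, 0.1% BSA). Then 400 μM octapeptide substrate was added and reacted 1 h at 30 °C; inhibition came from LC-MS/MS product peak areas, mean of ≥2 experiments.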", "note": "pIC50: −log10 of the molar value."}
{"smiles": "N=C1NC(c2ccccc2)(c2ccccc2)C(=O)N1Cc1cccc(C(=O)N2CCn3nc(C(F)(F)F)nc3C2)c1", "note": "[Compound 301, 2-imino-5,5-diphenyl-3-(3-{[2-(trifluoromethyl)-5,6-dihydro[1,2,4]triazolo[1,5-a]pyrazin-7(8H)-yl]carbonyl}benzyl) imidazolidin-4-one]", "values": [{"measurement": "pIC50", "result": 7.35}]}
{"smiles": "CCCC1(c2ccccc2)NC(=N)N(Cc2cccc(C(=O)N3Cc4cncnc4C3)c2)C1=O", "note": "(stereo not drawn) [Compound 302, 3-[3-(5,7-dihydro-6H-pyrrolo[3,4-d]pyrimidin-6-ylcarbonyl)benzyl]-2-imino-5-phenyl-5-propylimidazolidin-4-one]", "values": [{"measurement": "pIC50", "result": 7.34}]}
{"smiles": "CC(C)CC1(c2ccccc2)NC(=N)N(Cc2cccc(C(=O)N3CCN(c4ncccn4)CC3)c2)C1=O", "note": "(stereo not drawn) [Compound 303, 2-imino-5-(2-methylpropyl)-5-phenyl-3-{3-[(4-pyrimidin-2-ylpiperazin-1-yl)carbonyl]benzyl} imidazolidin-4-one]", "values": [{"measurement": "pIC50", "result": 7.34}]}
{"smiles": "CC(C)CCC1(c2cccc(-c3cccnc3)c2)NC(=N)N(Cc2cccc(C(=O)N3Cc4nccnc4C3)c2)C1=O", "note": "(stereo not drawn) [Compound 304, 3-[3-(5,7-dihydro-6H-pyrrolo[3,4-b]pyrazin-6-ylcarbonyl)benzyl]-2-imino-5-(3-methylbutyl)-5-(3-pyridin-3-ylphenyl)imidazolidin-4-one]", "values": [{"measurement": "pIC50", "result": 7.34}]}
{"smiles": "COC(=O)N1CCN(C(=O)c2cccc(CN3C(=N)NC(c4ccc(F)cc4)(c4ccc(F)cc4)C3=O)c2)CC1", "note": "[Compound 305, methyl 4-[(3-{[4,4-bis(4-fluorophenyl)-2-imino-5-oxoimidazolidin-1-yl]methyl}phenyl)carbonyl] piperazine-1-carboxylate]", "values": [{"measurement": "pIC50", "result": 7.19}]}
{"smiles": "CN(C)C(=O)c1cccc(C2(c3ccc(F)cc3)NC(=N)N(Cc3cccc(C(=O)N4Cc5ccccc5C4)c3)C2=O)c1", "note": "(stereo not drawn) [Compound 306, 3-{1-[3-(1,3-dihydro-2H-isoindol-2-ylcarbonyl)benzyl]-4-(4-fluorophenyl)-2-imino-5-oxoimidazolidin-4-yl}-N,N-dimethylbenzamide]", "values": [{"measurement": "pIC50", "result": 7.32}]}
{"smiles": "N=C1NC(c2ccccc2)(c2ccccc2)C(=O)N1Cc1cccc(C(=O)N2CCN(c3ccccn3)CC2)c1", "note": "[Compound 307, 2-imino-5,5-diphenyl-3-{3-[(4-pyridin-2-ylpiperazin-1-yl)carbonyl]benzyl}-imidazolidin-4-one]", "values": [{"measurement": "pIC50", "result": 7.32}]}
{"smiles": "N=C1NC(c2ccccc2)(c2ccccc2)C(=O)N1Cc1cccc(C(=O)N2CCc3cc(F)ccc3C2)c1", "note": "[Compound 308, 3-{3-[(6-fluoro-3,4-dihydroisoquinolin-2(1H)-yl)carbonyl]benzyl}-2-imino-5,5-diphenylimidazolidin-4-one]", "values": [{"measurement": "pIC50", "result": 7.31}]}
{"smiles": "CN(C)C(=O)N1CCN(C(=O)c2cc(F)cc(CN3C(=N)NC(c4ccccc4)(c4ccccc4)C3=O)c2)CC1", "note": "[Compound 309, 4-({3-fluoro-5-[(2-imino-5-oxo-4,4-diphenylimidazolidin-1-yl)methyl]phenyl}carbonyl)-N,N-dimethylpiperazine-1-carboxamide]", "values": [{"measurement": "pIC50", "result": 6.91}]}
{"smiles": "N=C1NC(c2ccccc2)(c2ccccc2)C(=O)N1Cc1cccc(C(=O)N2Cc3cncnc3C2)c1", "note": "[Compound 310, 3-[3-(5,7-dihydro-6H-pyrrolo[3,4-d]pyrimidin-6-ylcarbonyl)benzyl]-2-imino-5,5-diphenylimidazolidin-4-one]", "values": [{"measurement": "pIC50", "result": 7.29}]}
{"smiles": "CC1c2ccccc2CN1C(=O)c1cccc(CN2C(=N)NC(c3ccc(F)cc3)(c3ccc(F)cc3)C2=O)c1", "note": "(stereo not drawn) [Compound 311, 5,5-bis(4-fluorophenyl)-2-imino-3-{3-[(1-methyl-1,3-dihydro-2H-isoindol-2-yl)carbonyl]benzyl} imidazolidin-4-one]", "values": [{"measurement": "pIC50", "result": 7.29}]}
{"smiles": "N=C1NC(c2ccccc2)(c2ccccc2)C(=O)N1Cc1cccc(C(=O)N2CCc3ccccc32)c1", "note": "[Compound 312, 3-[3-(2,3-dihydro-1H-indol-1-ylcarbonyl)benzyl]-2-imino-5,5-diphenylimidazolidin-4-one]", "values": [{"measurement": "pIC50", "result": 7.28}]}
{"smiles": "N=C1NC(c2ccccc2)(c2ccccc2)C(=O)N1Cc1cccc(C(=O)N2CCc3ccncc3C2)c1", "note": "[Compound 313, 3-[3-(3,4-dihydro-2,7-naphthyridin-2(1H)-ylcarbonyl)benzyl]-2-imino-5,5-diphenylimidazolidin-4-one]", "values": [{"measurement": "pIC50", "result": 7.28}]}
{"smiles": "CC(C)CCC1(c2ccccc2)NC(=N)N(Cc2cccc(C(=O)N3CCC(n4c(=O)[nH]c5ccccc54)CC3)c2)C1=O", "note": "(stereo not drawn) [Compound 314, 1-{1-[(3-{[2-imino-4-(3-methylbutyl)-5-oxo-4-phenylimidazolidin-1-yl]methyl}phenyl)carbonyl]piperidin-4-yl}-1,3-dihydro-2H-benzimidazol-2-one]", "values": [{"measurement": "pIC50", "result": 7.28}]}
{"smiles": "CC(C)CC1(c2ccccc2)NC(=N)N(Cc2cccc(C(=O)N3CCN(c4ccccc4Cl)CC3)c2)C1=O", "note": "(stereo not drawn) [Compound 315, 3-(3-{[4-(2-chlorophenyl)piperazin-1-yl]carbonyl}benzyl)-2-imino-5-(2-methylpropyl)-5-phenylimidazolidin-4-one]", "values": [{"measurement": "pIC50", "result": 7.28}]}
{"smiles": "N=C1NC(c2ccc(F)cc2)(c2ccc(F)cc2)C(=O)N1Cc1cccc(C(=O)N2CCC(n3c(=O)[nH]c4nc(F)ccc43)CC2)c1", "note": "[Compound 316, 1-{1-[(3-{[4,4-bis(4-fluorophenyl)-2-imino-5-oxoimidazolidin-1-yl]methyl}phenyl)carbonyl]piperidin-4-yl}-5-fluoro-1,3-dihydro-2H-imidazo[4,5-b]pyridin-2-one]", "values": [{"measurement": "pIC50", "result": 7.28}]}
{"smiles": "N=C1NC(c2ccc(F)cc2)(c2ccc(F)cc2)C(=O)N1Cc1cccc(C(=O)N2Cc3ccc(C(F)(F)F)cc3C2)c1", "note": "[Compound 317, 5,5-bis(4-fluorophenyl)-2-imino-3-(3-{[5-(trifluoromethyl)-1,3-dihydro-2H-isoindol-2-yl]carbonyl}benzyl)-imidazolidin-4-one]", "values": [{"measurement": "pIC50", "result": 7.26}]}
{"smiles": "CC(C)CC1(c2ccccc2)NC(=N)N(Cc2cccc(C(=O)N3CCc4ccccc4C3)c2)C1=O", "note": "(stereo not drawn) [Compound 318, 3-[3-(3,4-dihydroisoquinolin-2(1H)-ylcarbonyl)benzyl]-2-imino-5-(2-methyl-propyl)-5-phenylimidazolidin-4-one]", "values": [{"measurement": "pIC50", "result": 7.25}]}
{"smiles": "N=C1NC(c2ccc(F)cc2)(c2ccc(F)cc2)C(=O)N1Cc1cccc(C(=O)N2CCC(n3c(=O)oc4ccccc43)CC2)c1", "note": "[Compound 319, 3-{1-[(3-{[4,4-bis(4-fluorophenyl)-2-imino-5-oxoimidazolidin-1-yl]methyl}phenyl)carbonyl]piperidin-4-yl}-1,3-benzoxazol-2(3H)-one]", "values": [{"measurement": "pIC50", "result": 7.25}]}
{"smiles": "CCCC1(c2ccccc2)NC(=N)N(Cc2cccc(C(=O)N3CCN(c4ncccn4)CC3)c2)C1=O", "note": "(stereo not drawn) [Compound 320, 2-imino-5-phenyl-5-propyl-3-{3-[(4-pyrimidin-2-ylpiperazin-1-yl)carbonyl]benzyl} imidazolidin-4-one]", "values": [{"measurement": "pIC50", "result": 7.25}]}
{"smiles": "CC(C)CC1(c2ccccc2)NC(=N)N(Cc2cccc(C(=O)N3CCN(c4ccccn4)CC3)c2)C1=O", "note": "(stereo not drawn) [Compound 321, 2-imino-5-(2-methylpropyl)-5-phenyl-3-{3-[(4-pyridin-2-ylpiperazin-1-yl)carbonyl]benzyl} imidazolidin-4-one]", "values": [{"measurement": "pIC50", "result": 7.25}]}
{"smiles": "CC1c2cc(Cl)c(Cl)cc2CN1C(=O)c1cccc(CN2C(=N)NC(c3ccccc3)(c3ccccc3)C2=O)c1", "note": "(stereo not drawn) [Compound 322, 3-{3-[(5,6-dichloro-1-methyl-1,3-dihydro-2H-isoindol-2-yl)carbonyl]benzyl}-2-imino-5,5-diphenylimidazolidin-4-one]", "values": [{"measurement": "pIC50", "result": 7.24}]}
{"smiles": "CC(=O)N1CCN(C(=O)c2cc(F)cc(CN3C(=N)NC(c4ccccc4)(c4ccccc4)C3=O)c2)CC1", "note": "[Compound 323, 3-{3-[(4-acetylpiperazin-1-yl)carbonyl]-5-fluorobenzyl}-2-imino-5,5-diphenylimidazolidin-4-one]", "values": [{"measurement": "pIC50", "result": 7.24}]}
{"smiles": "N=C1NC(c2ccccc2)(c2ccccc2)C(=O)N1Cc1cccc(C(=O)N2CCN(c3ccccc3)CC2)c1", "note": "[Compound 324, 2-imino-5,5-diphenyl-3-{3-[(4-phenylpiperazin-1-yl)carbonyl]benzyl} imidazolidin-4-one]", "values": [{"measurement": "pIC50", "result": 7.24}]}
{"smiles": "C[C@@H](c1cccc(C(=O)N2Cc3ccccc3C2)c1)N1C(=N)NC(c2ccc(F)cc2)(c2ccc(F)cc2)C1=O", "note": "[Compound 325, 3-{(1S)-1-[3-(1,3-dihydro-2H-isoindol-2-ylcarbonyl)phenyl]ethyl}-5,5-bis(4-fluorophenyl)-2-iminoimidazolidin-4-one]", "values": [{"measurement": "pIC50", "result": 7.23}]}
{"smiles": "CC(C)NC(=O)N1CCN(C(=O)c2cccc(CN3C(=N)NC(c4ccccc4)(c4ccccc4)C3=O)c2)CC1", "note": "[Compound 326, 4-({3-[(2-imino-5-oxo-4,4-diphenylimidazolidin-1-yl)methyl]phenyl}carbonyl)-N-(1-methylethyl) piperazine-1-carboxamide]", "values": [{"measurement": "pIC50", "result": 7.23}]}
{"smiles": "CN(C)C(=O)c1nc2n(c1Cl)CCN(C(=O)c1cccc(CN3C(=N)NC(c4ccccc4)(c4ccccc4)C3=O)c1)C2", "note": "[Compound 327, 3-chloro-7-({3-[(2-imino-5-oxo-4,4-diphenylimidazolidin-1-yl)methyl]phenyl}carbonyl)-N,N-dimethyl-5,6,7,8-tetrahydroimidazo[1,2-a]pyrazine-2-carboxamide]", "values": [{"measurement": "pIC50", "result": 7.19}]}
{"smiles": "CC(C)C[C@]1(c2ccccc2)NC(=N)N([C@H](C)c2cccc(C(=O)N3CCN(C)C(=O)C3)c2)C1=O", "note": "[Compound 328, 4-[(3-{(1R)-1-[2-imino-4-(2-methylpropyl)-5-oxo-4-phenylimidazolidin-1-yl]ethyl}phenyl)carbonyl]-1-methylpiperazin-2-one]", "values": [{"measurement": "pIC50", "result": 7.19}]}
{"smiles": "N=C1NC(c2ccccc2)(c2ccccc2)C(=O)N1Cc1cccc(C(=O)N2CCn3c(nnc3C(F)(F)F)C2)c1", "note": "[Compound 329, 2-imino-5,5-diphenyl-3-(3-{[3-(trifluoromethyl)-5,6-dihydro[1,2,4]triazolo[4,3-a]pyrazin-7(8H)-yl]carbonyl}benzyl) imidazolidin-4-one]", "values": [{"measurement": "pIC50", "result": 7.17}]}
{"smiles": "COC(=O)N1CCN(C(=O)c2cccc(CN3C(=N)NC(c4ccccc4)(c4ccccc4)C3=O)c2)CC1", "note": "[Compound 330, methyl 4-({3-[(2-imino-5-oxo-4.4-diphenylimidazolidin-1-yl)methyl]phenyl}carbonyl) piperazine-1-carboxylate]", "values": [{"measurement": "pIC50", "result": 7.17}]}
